In patent US10689622B2, “Culture medium for proliferating stem cell, which contains sulfated compound” (AJINOMOTO CO., INC., priority 2012, dated 2020):

What was measured:
bFGF [1] = biological target: T1, bFGF (Homo sapiens, UniProt P09038); test: Evaluation of bFGF stabilization in ReproFF2 medium (ELISA); format: biochemical; details: 37° C. for 7 days
T1 construct: purchased Lonza (via TAKARA BIO INC.) Ser. No. 00/190,632
Experimental: (§1) A commercially available measurement kit (human bFGF ELISA kit, ELH-bFGF-001, Ray Biotech) was used for quantification of bFGF in the medium. The measurement procedures followed the protocol attached to the kit. The bFGF concentration of the serum-free medium was calculated from the analytical curve (conversion formula) drawn from the absorbance of an analytical curve standard solution. The evaluation criteria of Tables 5-8 are as follows:
(§2) A test compound was dissolved in phosphate buffered saline, and diluted 10-fold with a serum-free medium to adjust the concentration shown in Table 4 (test sample). The test sample was left standing in a tightly sealed Falcon tube at 37° C. for 7 days, and the bFGF concentration was quantified by ELISA measurement. A phosphate buffered saline without a test compound was diluted 10-fold with Essential 8 medium or ReproFF2 medium, and left standing at 37° C. or 4° C. for 7 days, and used as a control.
as §1, with “Table 13” for “Tables 5-8”
as §2, with “Table 12” for “Table 4”

[2] = Measurement of content level of sulfur in test compound (ICP); format: physicochemical
Summary of the method: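 Sulfur content was measured by ICP emission spectrometry on samples containing 0.01 wt % test compound. Values came from a calibration curve of sulfur standards at 0, 1, 10, 30 and 50 ppm.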

iPS cell 201B7 strain = test: iPS cell proliferation system (cell number); format: cell-based, human; details: matrigel, Essential-8 medium
Experimental: The cell proliferation effect of various test compounds was evaluated using artificial pluripotent stem cell (iPS cell). 201B7 strain purchased from iPS Academia Japan, Inc. was grown in a culture container coated with a basal lamina matrix (matrigel manufactured by Nippon Becton Dickinson Company, Ltd., or a fragment containing an active domain of laminin 511 purchased from OSAKA UNIVERSITY) (Becton, Dickinson and Company, Falcon culture petri dish or Falcon culture plate), contained in a feeder-free medium for human ES/iPS cell (ReproCELL Inc, ReproFF2).
In this medium were suspended iPS cells in colony state, and a 2.5- to 3.5-fold diluted amount of the original culture was plated on a 6-well culture plate coated with a basal lamina matrix (Nippon Becton Dickinson Company, Ltd., Falcon culture plate). […] After culturing for 6 to 12 days, the medium was removed, the cells were detached from the culture plate by a trypsin-EDTA (Sigma-Aldrich Ltd.) or TrypLE Select (Invitrogen) treatment and the cell number was measured. The cell number was measured by the method described in “Kaitei Saibou baiyou Nyuumon Note, page 77-83, 2010, YODOSHA CO., LTD.” which is incorporated herein by reference in its entirety.
When the cells were seeded in a dissociation state of the cells (single cell state), a test compound solution after filter sterilization was added to a medium containing Y-27632 (Nacalai Tesque) to a given concentration, and dispensed to a 6 well culture plate. Thereto were plated iPS cells suspended in a medium containing Y-27632 at 100,000 cells/well, and cultured for 6 to 8 days. On the next day of seeding, the medium was exchanged to a medium (without Y-27632) added with the test compound alone. When medium exchange was necessary, the medium was exchanged every 2 or 3 days. […] After culturing for 6 to 8 days, the cell number was measured by a method similar to that mentioned above.
When the evaluation was performed in Essential 8 medium (Invitrogen), which is a different feeder-free medium for iPS cell, iPS cells cultured in a medium obtained by adding human serum albumin (Sigma-Aldrich Co. LLC) to Essential 8 medium were used.

bFGF [3] = biological target: T1, bFGF; test: Evaluation of bFGF stabilization in Essential 8 medium (ELISA); format: biochemical; details: 37° C. for 7 days
Summary of the method: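 Test compound in PBS diluted 10-fold into serum-free medium (Essential 8 or ReproFF2), held sealed at 37° C for 7 days; remaining bFGF quantified by ELISA against a standard curve. Controls: PBS without compound diluted into each medium, held 7 days at 37° C or 4° C.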

[4] = tested on: Human bone marrow-derived mesenchymal stem cells; test: Mesenchymal stem cell proliferation system (cell number by DNA quantification); details: growth of mesenchymal stem cell, control ratio
[5] = compound used in the Examples, stated in the description

T1 sequence (P09038 143-288): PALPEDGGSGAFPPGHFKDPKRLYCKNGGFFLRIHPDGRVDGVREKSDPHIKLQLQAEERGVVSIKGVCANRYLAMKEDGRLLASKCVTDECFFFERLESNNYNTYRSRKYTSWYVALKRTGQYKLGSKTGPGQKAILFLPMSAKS

O=S(=O)([O-])OC[C@H]1O[C@@](COS(=O)(=O)[O-])(O[C@H]2O[C@H](COS(=O)(=O)[O-])[C@@H](OS(=O)(=O)[O-])[C@H](OS(=O)(=O)[O-])[C@H]2OS(=O)(=O)[O-])[C@@H](OS(=O)(=O)[O-])[C@@H]1OS(=O)(=O)[O-].[K+].[K+].[K+].[K+].[K+].[K+].[K+].[K+] [sucrose 8SO3K]
concentration showing a suppressive effect on a decrease in the bFGF concentration of the medium (bFGF [1]): not less than 250 pg/ml | bFGF concentration relative to that of 4° C. control (ELISA) (bFGF [1]; test compound 250 pg/ml): − (bFGF concentration was not less than 10% and less than 30% relative to that of 4 °C control) | bFGF concentration relative to that of 4° C. control (ELISA) (bFGF [1]; test compound 25 ng/ml): +++ (bFGF concentration was not less than 70% relative to that of 4 °C control) | bFGF concentration relative to that of 4° C. control (ELISA) (bFGF [1]; test compound 250 ng/ml): +++ (bFGF concentration was not less than 70% relative to that of 4 °C control) | bFGF concentration relative to that of 4° C. control (ELISA) (bFGF [1]; test compound 25 μg/ml): ++ (bFGF concentration was not less than 50% and less than 70% relative to that of 4 °C control) | bFGF concentration relative to that of 4° C. control (ELISA) (bFGF [1]; test compound 250 μg/ml): +++ (bFGF concentration was not less than 70% relative to that of 4 °C control) | sulfur content Found (inorganic analysis) ([2]; ICPS-8100, evaluation samples containing 0.01 wt % test compound): 17 wt % | sulfate group / sulfo group content level [2, 5]: 48.8 wt % | sulfur content (content level of sulfur) [2, 5]: 19.5 wt % | number of cells relative to control (iPS cell 201B7 strain; test compound 25 ng/ml): ◯ (not less than 100%: ◯) | number of cells relative to control (iPS cell 201B7 strain; test compound 250 ng/ml): ◯ (not less than 100%: ◯) | concentration showing a suppressive effect on a decrease in the bFGF concentration of the medium (bFGF [3]): not less than 2.5 μg/ml | bFGF concentration relative to that of 4° C. control (ELISA) (bFGF [3]; test compound 250 pg/ml): x (bFGF concentration was less than 10% relative to that of 4 °C control) | bFGF concentration relative to that of 4° C. control (ELISA) (bFGF [3]; test compound 25 ng/ml): x (bFGF concentration was less than 10% relative to that of 4 °C control) | bFGF concentration relative to that of 4° C. control (ELISA) (bFGF [3]; test compound 250 ng/ml): x (bFGF concentration was less than 10% relative to that of 4 °C control) | bFGF concentration relative to that of 4° C. control (ELISA) (bFGF [3]; test compound 25 μg/ml): +++ (bFGF concentration was not less than 70% relative to that of 4 °C control) | bFGF concentration relative to that of 4° C. control (ELISA) (bFGF [3]; test compound 250 μg/ml): +++ (bFGF concentration was not less than 70% relative to that of 4 °C control) | effectiveness cells [4]: ⊚ (⊚ not less than 120%)
